In one data set the test system is Apis mellifera. As to conditions: acute, mortality.
The subject of the next data set is Bibionidae. As to conditions: chronic/long-term; duration: 28 days; development.
A further data set concerns Canidae. As to conditions: oral, Dog Other.
The next data set relates to Colinus virginianus. To be noted: acute; oral; mortality.
The next data set has as its system Daphnia magna. As to conditions: chronic/long-term; duration: 21 days; reproduction.
In another data set the test system is Folsomia candida. As to conditions: chronic/long-term; duration: 28 days.
In a further data set the test system is Hypoaspis aculeifer. As to conditions: chronic/long-term; duration: 14 days.
A further data set relates to Oncorhynchus mykiss. As to conditions: chronic/long-term; duration: 21 days; growth.
Another data set deals with Aphidius rhopalosiphi. The experiment in a line: LR50; higher = less toxic. As to conditions: not reported; mortality.
The next data set deals with Typhlodromus pyri. Nature of the data set: LR50; higher = less toxic. To be noted: not reported; mortality.

Data on one molecule can be found in EPA's ToxValDB 9.5 (doi:10.2903/j.efsa.2015.4206).

A word on the NOAEL: it is the highest tested level that showed no adverse finding.

In the case of `CC(C)c1ccc(NC(=O)N(C)C)cc1` [Isoproturon], the LD50 was above 100 µg/piece with Apis mellifera (dermal); above 99.2 µg/piece in the data set with Apis mellifera (oral, unspecified); 1400 mg/kg-day in the data set with Colinus virginianus; 1830 mg/kg-day in the data set with Rattus norvegicus (acute, mortality). Besides, the NOEC with Bibionidae was 0.344 mg/L; in the data set on Daphnia magna, 0.12 mg/L; in the data set on Folsomia candida, 24.3 mg/kg; in the data set on Hypoaspis aculeifer, above 459 mg/kg; in the data set with Oncorhynchus mykiss, 1 mg/L; in the data set on Rattus norvegicus (chronic) it was 10 mg/kg-day. The molecule further gave an NOEC in the data set on Tagia sp. (chronic/long-term, duration: 8 weeks) of 14 mg/kg. Further, the NOAEL stood at 3.2 mg/kg-day in the data set with Canidae (short-term, histopathology: nonneoplastic); 10 mg/kg-day with Canidae (subchronic, duration: 90 days, hematological); 12 mg/kg-day in the data set with Coturnix japonica (reproduction developmental, reproduction); 3.1 mg/kg-day in the data set on Rattus norvegicus (chronic, duration: 2 years, histopathology: neoplastic). Further, the LC50 with Coturnix japonica (acute, oral, diet, mortality) was above 5000 mg/kg; in the data set with Tagia sp. (acute, duration: 14 days, mortality), above 500 mg/kg. Besides, the LR50 with Aphidius rhopalosiphi and in the data set with Typhlodromus pyri was above 2500 g/ha throughout.
